Experimental data from ChEMBL document CHEMBL1143424, “Diversity of penA alterations and subtypes in Neisseria gonorrhoeae strains from Sydney, Australia, that are less susceptible to ceftriaxone” (2007).
In brackets after ≈: the same amount, converted by molar mass.

Assays:
[1] = test system: Neisseria gonorrhoeae; experiment: microbe, parasite or virus in culture
Description: Antimicrobial activity against Neisseria gonorrhoeae isolate with PBP2 pattern 5 mutant NG-MAST sequence type 1410 by agar plate dilution method

[2] = test system: Neisseria gonorrhoeae; experiment: microbe, parasite or virus in culture; remark: listed apart in the source
Description: Antimicrobial activity against Neisseria gonorrhoeae isolate with PBP2 pattern 12 mutant NG-MAST sequence type 1703 by agar plate dilution method

[3] = test system: Neisseria gonorrhoeae; experiment: Antimicrobial activity against Neisseria gonorrhoeae isolate with PBP2 pattern 13 mutant NG-MAST sequence type 1148 by agar plate dilution method; assay type: functional
[4] = test system: Neisseria gonorrhoeae; experiment: Antimicrobial activity against Neisseria gonorrhoeae isolate with PBP2 pattern 7 mutant NG-MAST sequence type 1422 by agar plate dilution method; assay type: functional
[5] = test system: Neisseria gonorrhoeae; experiment: Antimicrobial activity against Neisseria gonorrhoeae isolate with PBP2 pattern 18 mutant NG-MAST sequence type 1621 by agar plate dilution method; assay type: functional
[6] = test system: Neisseria gonorrhoeae; experiment: microbe, parasite or virus in culture; remark: listed apart in the source
Description: Antimicrobial activity against Neisseria gonorrhoeae isolate with PBP2 pattern 13 mutant NG-MAST sequence type 1623 by agar plate dilution method

[7] = test system: Neisseria gonorrhoeae; experiment: microbe, parasite or virus in culture; remark: listed apart in the source
Description: Antimicrobial activity against Neisseria gonorrhoeae isolate with PBP2 pattern 11 mutant NG-MAST sequence type 1420 by agar plate dilution method

[8] = test system: Neisseria gonorrhoeae; experiment: microbe, parasite or virus in culture; remark: listed apart in the source
Description: Antimicrobial activity against Neisseria gonorrhoeae isolate with PBP2 pattern 10 mutant NG-MAST sequence type 835 by agar plate dilution method

[9] = test system: Neisseria gonorrhoeae; experiment: microbe, parasite or virus in culture; remark: listed apart in the source
Description: Antimicrobial activity against Neisseria gonorrhoeae isolate with PBP2 pattern 7 mutant NG-MAST sequence type 1619 by agar plate dilution method

[10] = test system: Neisseria gonorrhoeae; experiment: Antimicrobial activity against Neisseria gonorrhoeae isolate with PBP2 pattern 4 mutant NG-MAST sequence type 327 by agar plate dilution method; assay type: functional
[11] = test system: Neisseria gonorrhoeae; experiment: microbe, parasite or virus in culture; remark: listed apart in the source
Description: Antimicrobial activity against Neisseria gonorrhoeae isolate with PBP2 pattern 20 mutant NG-MAST sequence type 211 by agar plate dilution method

[12] = test system: Neisseria gonorrhoeae; experiment: microbe, parasite or virus in culture; remark: listed apart in the source
Description: Antimicrobial activity against Neisseria gonorrhoeae isolate with PBP2 pattern 10 mutant NG-MAST sequence type 1677 by agar plate dilution method

[13] = test system: Neisseria gonorrhoeae; experiment: microbe, parasite or virus in culture; remark: listed apart in the source
Description: Antimicrobial activity against Neisseria gonorrhoeae isolate with PBP2 pattern 10 mutant NG-MAST sequence type 925 by agar plate dilution method

[14] = test system: Neisseria gonorrhoeae; experiment: microbe, parasite or virus in culture; remark: listed apart in the source
Description: Antimicrobial activity against Neisseria gonorrhoeae isolate with PBP2 pattern 11 mutant NG-MAST sequence type 5 by agar plate dilution method

[15] = test system: Neisseria gonorrhoeae; experiment: microbe, parasite or virus in culture; remark: listed apart in the source
Description: Antimicrobial activity against Neisseria gonorrhoeae isolate with PBP2 pattern 13 mutant NG-MAST sequence type 1676 by agar plate dilution method

[16] = test system: Neisseria gonorrhoeae; experiment: microbe, parasite or virus in culture; remark: listed apart in the source
Description: Antimicrobial activity against Neisseria gonorrhoeae isolate with PBP2 pattern 9 mutant NG-MAST sequence type 5 by agar plate dilution method

[17] = test system: Neisseria gonorrhoeae; experiment: microbe, parasite or virus in culture; remark: listed apart in the source
Description: Antimicrobial activity against Neisseria gonorrhoeae isolate with PBP2 pattern 12 mutant NG-MAST sequence type 1426 by agar plate dilution method

[18] = test system: Neisseria gonorrhoeae; experiment: microbe, parasite or virus in culture; remark: listed apart in the source
Description: Antimicrobial activity against Neisseria gonorrhoeae isolate with PBP2 pattern 13 mutant NG-MAST sequence type 1409 by agar plate dilution method

[19] = test system: Neisseria gonorrhoeae; experiment: microbe, parasite or virus in culture; remark: listed apart in the source
Description: Antimicrobial activity against Neisseria gonorrhoeae isolate bropyst serotype with PBP2 pattern 12 mutant NG-MAST sequence type 604 by agar plate dilution method

[20] = test system: Neisseria gonorrhoeae; experiment: microbe, parasite or virus in culture; remark: listed apart in the source
Description: Antimicrobial activity against Neisseria gonorrhoeae isolate with PBP2 pattern 18 mutant NG-MAST sequence type 864 by agar plate dilution method

[21] = test system: Neisseria gonorrhoeae; experiment: microbe, parasite or virus in culture; remark: listed apart in the source
Description: Antimicrobial activity against Neisseria gonorrhoeae isolate with PBP2 pattern 12 mutant NG-MAST sequence type 604 by agar plate dilution method

[22] = test system: Neisseria gonorrhoeae; experiment: microbe, parasite or virus in culture; remark: listed apart in the source
Description: Antimicrobial activity against Neisseria gonorrhoeae isolate with PBP2 pattern 13 mutant NG-MAST sequence type 1624 by agar plate dilution method

[23] = test system: Neisseria gonorrhoeae; experiment: microbe, parasite or virus in culture; remark: listed apart in the source
Description: Antimicrobial activity against Neisseria gonorrhoeae isolate with PBP2 pattern 9 mutant NG-MAST sequence type 21 by agar plate dilution method

[24] = test system: Neisseria gonorrhoeae; experiment: Antimicrobial activity against Neisseria gonorrhoeae isolate with PBP2 pattern 13 mutant NG-MAST sequence type 1425 by agar plate dilution method; assay type: functional
[25] = test system: Neisseria gonorrhoeae; experiment: Antimicrobial activity against Neisseria gonorrhoeae isolate with PBP2 pattern 13 mutant NG-MAST sequence type 1413 by agar plate dilution method; assay type: functional
[26] = test system: Neisseria gonorrhoeae; experiment: microbe, parasite or virus in culture; remark: listed apart in the source
Description: Antimicrobial activity against Neisseria gonorrhoeae isolate with PBP2 pattern 10 mutant NG-MAST sequence type 1414 by agar plate dilution method

[27] = test system: Neisseria gonorrhoeae; experiment: microbe, parasite or virus in culture; remark: listed apart in the source
Description: Antimicrobial activity against Neisseria gonorrhoeae isolate with PBP2 pattern 5 mutant NG-MAST sequence type 1688 by agar plate dilution method

[28] = test system: Neisseria gonorrhoeae; experiment: microbe, parasite or virus in culture; remark: listed apart in the source
Description: Antimicrobial activity against Neisseria gonorrhoeae isolate with PBP2 pattern 10 mutant NG-MAST sequence type 326 by agar plate dilution method

[29] = test system: Neisseria gonorrhoeae; experiment: Antimicrobial activity against Neisseria gonorrhoeae isolate with PBP2 pattern 17 mutant NG-MAST sequence type 1620 by agar plate dilution method; assay type: functional
[30] = test system: Neisseria; experiment: Antimicrobial activity against multiresistant Gonococcus; assay type: functional
[31] = test system: Neisseria gonorrhoeae; experiment: microbe, parasite or virus in culture; remark: listed apart in the source
Description: Antimicrobial activity against Neisseria gonorrhoeae isolate with PBP2 pattern 4 mutant NG-MAST sequence type 69 by agar plate dilution method

[32] = test system: Neisseria gonorrhoeae; experiment: microbe, parasite or virus in culture; remark: listed apart in the source
Description: Antimicrobial activity against Neisseria gonorrhoeae isolate with PBP2 pattern 17 mutant NG-MAST sequence type 1342 by agar plate dilution method

[33] = test system: Neisseria gonorrhoeae; experiment: microbe, parasite or virus in culture; remark: listed apart in the source
Description: Antimicrobial activity against Neisseria gonorrhoeae isolate with PBP2 pattern 7 mutant NG-MAST sequence type 1622 by agar plate dilution method

[34] = test system: Neisseria gonorrhoeae; experiment: microbe, parasite or virus in culture; remark: listed apart in the source
Description: Antimicrobial activity against Neisseria gonorrhoeae isolate with PBP2 pattern 10 mutant NG-MAST sequence type 1424 by agar plate dilution method

Structure (SMILES): CO/N=C(\C(=O)N[C@@H]1C(=O)N2C(C(=O)O)=C(CSc3nc(=O)c(O)nn3C)CS[C@H]12)c1csc(N)n1 [CEFTRIAXONE]
- MIC [1]: 0.06 µg/mL (≈ 0.108 µM)
- MIC [2]: 0.06 µg/mL (≈ 0.108 µM)
- MIC [3]: 0.12 µg/mL (≈ 0.216 µM)
- MIC [4]: 0.12 µg/mL (≈ 0.216 µM)
- MIC [5]: 0.12 µg/mL (≈ 0.216 µM)
- MIC [6]: 0.06 µg/mL (≈ 0.108 µM)
- MIC [7]: 0.06 µg/mL (≈ 0.108 µM)
- MIC [8]: 0.06 µg/mL (≈ 0.108 µM)
- MIC [9]: 0.06 µg/mL (≈ 0.108 µM)
- MIC [10]: 0.12 µg/mL (≈ 0.216 µM)
- MIC [11]: 0.06 µg/mL (≈ 0.108 µM)
- MIC [12]: 0.06 µg/mL (≈ 0.108 µM)
- MIC [13]: 0.06 µg/mL (≈ 0.108 µM)
- MIC [14]: 0.06 µg/mL (≈ 0.108 µM)
- MIC [15]: 0.06 µg/mL (≈ 0.108 µM)
- MIC [16]: 0.06 µg/mL (≈ 0.108 µM)
- MIC [17]: 0.06 µg/mL (≈ 0.108 µM)
- MIC [18]: 0.06 µg/mL (≈ 0.108 µM)
- MIC [19]: 0.06 µg/mL (≈ 0.108 µM)
- MIC [20]: 0.06 µg/mL (≈ 0.108 µM)
- MIC [21]: 0.06 µg/mL (≈ 0.108 µM)
- MIC [22]: 0.06 µg/mL (≈ 0.108 µM)
- MIC [23]: 0.06 µg/mL (≈ 0.108 µM)
- MIC [24]: 0.12 µg/mL (≈ 0.216 µM)
- MIC [25]: 0.12 µg/mL (≈ 0.216 µM)
- MIC [26]: 0.06 µg/mL (≈ 0.108 µM)
- MIC [27]: 0.06 µg/mL (≈ 0.108 µM)
- MIC [28]: 0.06 µg/mL (≈ 0.108 µM)
- MIC [29]: 0.12 µg/mL (≈ 0.216 µM)
- MIC [30]: 0.5 µg/mL (≈ 0.902 µM)
- MIC [31]: 0.06 µg/mL (≈ 0.108 µM)
- MIC [32]: 0.06 µg/mL (≈ 0.108 µM)
- MIC [33]: 0.06 µg/mL (≈ 0.108 µM)
- MIC [34]: 0.06 µg/mL (≈ 0.108 µM)
